This is an account of results in PMC3236199, “Development of Derivatives of 3, 3′-Diindolylmethane as Potent Leishmania donovani Bi-Subunit Topoisomerase IB Poisons” (PLoS ONE, 2011).

The subject of experiment [1] is DIM resistant L. donovani promastigotes (DR50). Briefly: Cell viability assay, DIM resistant promastigotes. To be noted: Leishmania donovani, 12 h, read-out: growth inhibited. It counts as cell-based. The procedure: L. donovani strain AG83 and DIM resistant parasite DR50 promastigotes were grown at 22°C in M199 liquid media supplemented with 10% FBS as described. Axenic amastigotes were cultured in modified M199 medium (pH 5.3) supplemented with 10 mM sodium succinate, 40 mM HEPES and 25% FCS and maintained at 37°C with 5% CO2.The effect of drugs on the viability of Leishmania parasites was determined by direct microscopic counting using light microscope (40× objective) in a haemocytometer. The cells at the exponential phase were collected and transferred into 24-well plate (3.5×10^6 cells per well). The cells were then incubated for 12 h in the presence of various concentrations of DIM, DPDIM, DMDIM and DMODIM (1, 5, 10, 20 and 50 µM). For other experiments, 10^4 cells were taken and grown in presence of the respective derivatives for a period of 30 days. For each 5 day interval, a small amount of aliquots were taken out. After incubation the cells were centrifuged and cell pellet was washed with PBS (1×) twice and finally suspended in 1 ml PBS (1×). Fifty µl of aliquot was taken, mixed with 0.4% trypan blue solution and incubated for 3 min at 22°C. One drop of the mixture was transferred to haemocytometer and the clear (live) and blue (dead) cells were counted. The total number of viable cells in aliquot was calculated by multiplying the total number of viable cells by 2 (the dilution factor for trypan blue). To obtain the total number of cells in the aliquot, total number of viable and nonviable cells were added up and multiplied by 2. Percentages of viable cells were calculated using the formula: [drawing 1]
The effects of different derivatives of DIM on cell proliferation were tested by incubating wild type and DIM resistant L. donovani promastigotes (3.5×10^6 cells/ml) with the drugs. […] The number of live promastigotes was measured by differential staining of live and dead cells using light microscope under 40× objective (Fig. 2). […]
Figure 2 Effect of DIM-derivatives on Leishmania parasites. Growth of L. donovani AG83 promastigotes (A) and DIM resistant promastigotes (B) were monitored in presence of increasing concentrations (1, 5, 10, 20 and 50 µM) of DIM, DPDIM, DMDIM and DMODIM for 12 h. […] Change in IC50 values after a prolong exposure to DIM derivatives (C) has been assessed as described in Materials and Methods. After every 5 day a small aliquot was taken out and number of viable promastigotes was counted for each concentration. IC50 values have been determined from them using Graph Pad Prsim ver 5.0 software and a graphical plot was generated over time. Growth of the parasites treated with the compounds was expressed as percentage of the viable promastigotes compared with that of control. […]

Experiment [2] addresses CT DNA. Briefly: Spectrofluorometric binding assay (fluorescence quenching). To be noted: for Kd: CT DNA 10 to 200 µM, 25°C, Scatchard analysis, read-out: dissociation constant (KD). The procedure:
Fluorescence titration was measured using Perkin Elmer, LS55, and Luminescence spectrometer. The intrinsic binding of DIM-derivatives to DNA was performed separately by fluorescence measurements at an excitation wavelength of 335 nm, 265 nm and 338 nm and emission range of 350 to 450 nm, 300 to 450 nm and 380 to 540 nm for DPDIM, DMDIM and DMODIM, respectively. Excitation and emission slit widths were 5 nm and 7.5 nm; 5 nm and 15 nm; and 5 nm and 15 nm for DPDIM, DMDIM and DMODIM, respectively. Background emission (<2%) was corrected by subtraction of spectra of blank buffer, DNA plus sample buffer and compounds plus sample buffer, respectively. Spectral titration was performed with DIM derivatives at 25°C in fluorescence buffer (20 mM Tris-HCL, pH 7.5, 50 mM NaCl and 10 mM MgCl2). CT DNA was added in increasing concentrations (10 to 200 µM), which are indicated in the legend. All the assays were performed in duplicate, titration points are corrected as described above and binding constants for DIM DNA-compound interaction were determined according to following equation: [drawing 2] (Eq–1) where ΔF = Fx−Fo, Fx and Fo representing the florescence intensity of DIM derivatives in the presence or absence of the added total DNA (St), respectively. ΔFmax is the maximum change in the fluorescence intensity. The intercept of the plot on the 1/F axis corresponding to 1/St = 0 measures the 1/Fmax, while the slope gives the estimation of the affinity constant (Ka). The dissociation constant KD = 1/Ka.
Therefore, it was of interest to determine whether DIM derivatives could interact with DNA. Fluorescence quenching assay was performed to determine the interaction between the derivatives of DIM and DNA at different concentrations of DNA (10 to 200 µM). DPDIM has fluorescence emission maximum (λem ^max) at the wavelength of 390 nm with a λex of 335 nm, whereas DMDIM has fluorescence emission maximum at a wavelength of 379 nm with a λex of 265 nm and DMODIM has fluorescence emission maximum at a wavelength of 450 nm with a λex of 338 nm. The excitation and emission slit widths were set at 5 nm and 7.5 nm for DPDIM, 5 nm and 15 nm for DMDIM; and 5 nm and 15 nm for DMODIM. Appropriate blanks corresponding to the buffer were subtracted to correct the background fluorescence. The fluorescence intensity decreases by increasing the concentration of DNA due to quenching reaction. Addition of DNA causes a slight shift of the maximum peak (λ shift) from 390 nm to 386 nm for DPDIM and from 379 nm to 374 nm for DMDIM with a concomitant decrease in fluorescence intensity (Fig. 7A and B). There is no λ shift for DMODIM (Fig. 7C). A progressive change in the fluorescence spectra of three DIM-derivatives on addition of different concentrations of DNA indicated an association between them.
Figure 7 Fluorescence quenching study of DIM derivatives-DNA interaction. (A) CT DNA concentration-dependently quenched DPDIM fluorescence at 390 nm. (B) CT DNA concentration-dependently quenched DMDIM fluorescence at 379 nm. (C) CT DNA concentration-dependently quenched DMODIM fluorescence at 450 nm. The arrow of each figure indicates the change in the emission spectra of DPDIM, DMDIM and DMODIM respectively on addition of CT DNA.

As for `COc1ccc2[nH]cc(Cc3c[nH]c4ccc(OC)cc34)c2c1` [DMODIM, 5,5′-dimethoxy 3,3′-diindolyl methane], the inhibition at 20 µM in experiment [1] came out at 65%. Also, in experiment [2], the Kd worked out at 48 µM. The “affinity to DNA less compared to DIM” value in experiment [2] (versus DIM) is approximately 2 fold.

Regarding `c1ccc2c(Cc3c[nH]c4ccccc34)c[nH]c2c1` [DIM, 3, 3′-diindolyl methane, reference compound], the inhibition at 20 µM in experiment [1] stood at 20%.

`c1ccc(-c2[nH]c3ccccc3c2Cc2c(-c3ccccc3)[nH]c3ccccc23)cc1` [DPDIM, 2,2′-diphenyl 3,3′-diindolyl methane]: the inhibition at 20 µM in experiment [1] worked out at 90%. Also, in experiment [2], the Kd was found to be 11 µM. The “affinity to DNA greater compared to DIM” value in experiment [2] (versus DIM mother compound) is on record as 2 fold.

In the case of `Cc1[nH]c2ccccc2c1Cc1c(C)[nH]c2ccccc12` [DMDIM, 2,2′-dimethyl 3,3′-diindolyl methane], in experiment [1], the inhibition at 20 µM was found to be 85%. In addition, the Kd in experiment [2] stood at 63 µM.

The Kd is the equilibrium constant for the complex coming apart.
